# Data: patent publication US20250042918A1, “COMPOUNDS” (Fundación Del Sector Públlco Estatal Centro Nacional De …, priority 2021, published 2025)
# Tests used:
# PIM-1 = target: T1, PIM-1 (Homo sapiens, UniProt P11309); assay: Protein PIM kinase assay (ADP Hunter Plus); format: biochemical; details: 100 μM ATP, 100 μM PIMtide
# T1 construct: made in house
# Experimental: (§1) PIM kinase activities were measured by using the commercial ADP Hunter™ Plus assay (DiscoveRx Ref. #33-016), a homogeneous assay measuring ADP accumulation, as a universal product of kinase activity. PIM-1 and PIM-2 proteins were obtained by purification as it is described by Martinez-Gonzalez et. al. Eur. J. Med Chem. 2019, 168, 87-109 and PIM-3 was acquired from Millipore (Cat #14-738). The assay was done following general manufacturer recommendations and adapting protein and substrates concentrations to optimal conditions. Kinase buffer was 15 mM HEPES, pH 7.4, 20 mM NaCl, 1 mM EGTA, 0.02% Tween-20, 10 mM MgCl2 and 0.1 mg/mL LBGG (bovine y-globulin). All PIM kinases assays were done at 100 μM PIM tide (ARKRRRHPSGPPTA), as peptide substrate, and 100 μM ATP. Protein concentration was 50, 350 and 200 pg/μl for PIM-1, 2 and 3, respectively. In order to calculate the IC50 of described compounds, serial 1:3 dilutions were prepared and the reaction started by addition of ATP. Incubation was done for 1 h at 25° C. Reagents A and B (DiscoveRx) were sequentially added to the wells and plates were incubated for 30 min at 37° C. Fluorescence counts were read in a Victor instrument (Perkin Elmer) with the recommended settings (544 and 580 nm as excitation and emission wavelengths, respectively). Values were plot against inhibitor concentration and fit to a sigmoid dose-response curve using Activity Base software from IDBS.
# PIM-2 = target: T2, PIM-2 (Homo sapiens, UniProt Q9P1W9); assay: Protein PIM kinase assay (ADP Hunter Plus); format: biochemical; details: 100 μM ATP, 100 μM PIMtide
# T2 construct: made in house
# Experimental: as §1
# PIM-3 = target: T3, PIM-3 (Homo sapiens, UniProt Q86V86); assay: Protein PIM kinase assay (ADP Hunter Plus); format: biochemical; details: 100 μM ATP, 100 μM PIMtide
# T3 construct: purchased Millipore 14-738
# Experimental: as §1
# [1] = test system: BAD S112 phosphorylation in H1299 cells overexpressing PIM-1 (H1299Pim1); assay: BAD S112 phosphorylation inhibition assay (in Cell ELISA); format: cell-based; details: Homo sapiens, NCI-H1299, 4 hours, medium without FBS, read-out: BAD PH 1299PIM 1 ELIWO
# Experimental: The efficacy of the compounds of the invention on the inhibition of BAD phosphorylation was measured by an in Cell ELISA.
# Materials: H1299 cells overexpressing PIM-1 (H1299Pim1). DMSO Plates: 96-well-Polystyrene, Untreated, Round-Bottom plates from Costar (Cat #3797). Cell Plates: 96-Flat bottom biocoated with Poly-D-Lysin plates with lid from Becton Dickinson (Cat #354651). Cell Culture Medium: DMEM high glucose, 10% Fetal Bovine Serum, 2 mM L-Glutamine, P/S. Antibodies: phospho BAD S112 antibody from Cell Signaling (cat. #9291S), anti-rabbit conjugated with peroxidase from Amersham (cat. #3619). Reagent: SuperSignal ELISA femto from Pierce (cat. #1001110).
# Procedure: Cells were seeded in 15000 cells per 200 μl per well into 96-well plates and incubated for 16 h at 37° C., 5% CO2. On day two, nine serial 1:2 compound dilutions were made in DMSO in a 96-well plate. The compounds were added to duplicate wells in 96-well cell plates using a FX BECKMAN robot (Beckman Coulter) and were incubated at 37° C. under CO2 atmosphere in medium without fetal bovine serum (FBS). After 4 hours, relative levels of BAD S112 phosphorylation were measured in Cell ELISA using SuperSignal ELISA Femto substrate (Pierce) and read on VICTOR (Perkin Elmer). EC50 values were calculated using ActivityBase from IDBS.
# [2] = test system: human leukaemia KG-1 subcutaneous xenograft; assay: In vivo efficacy in leukaemia model, subcutaneous xenograft; details: KG-1 xenograft, CB-17 SCID mice, oral 25 BID, 50 and 100 mg/kg QD, 21 days
# Experimental: The anti-tumour efficacy of the compound of Example 1 was measured in human leukaemia KG-1 subcutaneous xenograft models in CB-17 SCID mice.
# Mice grouping was on day 0 (DO) and Example 1 25 BID*21 group was started on the evening of day 0 (DO), other groups were started on the morning of day 1 (D1). At the 21 days of the treatment, 8 h and 24h post the last dose, 4 mice each from vehicle group, Example 1 25 mg/kg BID group and Example 1 50 mg/kg group were subjected tumour collection.
# Animals: Female mice (Mus musculus) strain: CB-17 SCID; 6-8 weeks old Body weight: 18-20 g; were obtained from Shanghai Lingchang BioTech Co., Ltd. Of the 59 obtained, 40 were grouped for efficacy study. The mice were kept in individual ventilation cages at constant temperature (20˜26° C.) and humidity (40-70%) with 5 animals in each cage. […]
# Tumour Measurements and the Endpoints: The major endpoint was tumour growth delay or cure. Tumour size was measured thrice weekly in two dimensions using a caliper, and the volume was expressed in mm^3 using the formula: V=0.5 a×b^2 where a and b were the long and short diameters of the tumour, respectively. […] TGI was calculated according to the following equation: […]
# T2 sequence (Q9P1W9 whole entry): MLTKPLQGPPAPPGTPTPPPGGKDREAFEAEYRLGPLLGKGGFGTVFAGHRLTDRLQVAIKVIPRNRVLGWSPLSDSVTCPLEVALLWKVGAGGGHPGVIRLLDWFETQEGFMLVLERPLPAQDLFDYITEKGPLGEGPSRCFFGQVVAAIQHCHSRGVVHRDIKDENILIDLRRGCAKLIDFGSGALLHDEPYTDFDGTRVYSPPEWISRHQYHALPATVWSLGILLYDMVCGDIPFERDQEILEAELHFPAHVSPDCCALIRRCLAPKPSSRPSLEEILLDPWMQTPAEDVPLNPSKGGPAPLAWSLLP
# T1 sequence (P11309 whole entry): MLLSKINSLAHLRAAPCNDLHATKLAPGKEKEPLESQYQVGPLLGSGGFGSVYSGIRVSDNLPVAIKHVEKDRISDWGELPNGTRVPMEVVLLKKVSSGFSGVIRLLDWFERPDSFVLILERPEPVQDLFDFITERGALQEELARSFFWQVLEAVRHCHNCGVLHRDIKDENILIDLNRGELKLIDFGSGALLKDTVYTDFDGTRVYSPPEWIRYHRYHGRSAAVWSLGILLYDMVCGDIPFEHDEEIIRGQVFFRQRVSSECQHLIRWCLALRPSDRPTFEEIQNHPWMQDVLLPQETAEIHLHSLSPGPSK
smiles,measurement,setting,value
"CN1CCOc2c1c(N[C@H]1CC[C@@](C)(O)CC1)nn1c(-c3cccc(OC(F)(F)F)c3)nnc21 [Example 1, 1-Methyl-4-[6-methyl-3-(3-trifluoromethoxy-phenyl)-7,8-dihydro-6H-9-oxa-1,2,3a,4,6-pentaaza-cyclopenta[a]naphthalen-5-ylamino]-cyclohexanol]",IC50,PIM-1,1 to 5 nM
same,IC50,PIM-2,5 to 10 nM
same,IC50,PIM-3,5 to 10 nM
same,EC50,[1],8.3 nM
same,anti-tumour efficacy (tumour volume),[2],effective
